Consider two molecules from ChEMBL document CHEMBL3045439, “Isoforms of the heteropteran Nezara viridula ecdysone receptor: protein characterisation, RH5992 insecticide binding and homology modelling” (Pest Manag Sci, 2011).

As usually defined, the IC50 is the concentration that gives 50% inhibition. A high value points to lower potency. For orientation: Ki means a measure of affinity in units of concentration, obtained from inhibition or displacement. Read a high Ki as a looser hold on the target.

Holding throughout (format): protein-complex assay
Assay [1] addresses T1, Ecdysone receptor (Spodoptera frugiperda, UniProt Q8MWR1+Q8MWR2).
T1 sequence (Q8MWR2 whole entry): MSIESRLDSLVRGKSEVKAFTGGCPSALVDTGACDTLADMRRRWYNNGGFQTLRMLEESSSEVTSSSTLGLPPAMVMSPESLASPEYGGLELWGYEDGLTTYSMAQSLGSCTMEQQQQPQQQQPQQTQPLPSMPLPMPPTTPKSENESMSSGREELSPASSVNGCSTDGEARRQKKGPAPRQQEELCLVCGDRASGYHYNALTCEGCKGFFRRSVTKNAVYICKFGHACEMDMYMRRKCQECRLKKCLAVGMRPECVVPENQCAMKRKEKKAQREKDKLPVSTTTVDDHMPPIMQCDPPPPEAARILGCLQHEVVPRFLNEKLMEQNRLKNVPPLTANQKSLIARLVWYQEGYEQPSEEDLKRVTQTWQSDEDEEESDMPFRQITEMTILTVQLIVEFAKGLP
T1 sequence (Q8MWR1 whole entry): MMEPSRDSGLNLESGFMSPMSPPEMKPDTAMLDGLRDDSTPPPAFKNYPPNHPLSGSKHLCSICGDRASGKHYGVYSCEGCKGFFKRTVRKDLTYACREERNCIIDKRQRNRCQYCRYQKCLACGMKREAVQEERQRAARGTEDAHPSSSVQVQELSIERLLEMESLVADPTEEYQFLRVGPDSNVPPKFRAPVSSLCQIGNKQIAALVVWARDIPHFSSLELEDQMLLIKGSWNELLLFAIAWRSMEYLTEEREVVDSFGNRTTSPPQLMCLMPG
Briefly: Binding affinity to Spodoptera frugiperda (fall armyworm) EcR.

The target of assay [2] is T2, Ecdysone receptor (Chironomus tentans, UniProt O45117+P49882).
T2 sequence (P49882 whole entry): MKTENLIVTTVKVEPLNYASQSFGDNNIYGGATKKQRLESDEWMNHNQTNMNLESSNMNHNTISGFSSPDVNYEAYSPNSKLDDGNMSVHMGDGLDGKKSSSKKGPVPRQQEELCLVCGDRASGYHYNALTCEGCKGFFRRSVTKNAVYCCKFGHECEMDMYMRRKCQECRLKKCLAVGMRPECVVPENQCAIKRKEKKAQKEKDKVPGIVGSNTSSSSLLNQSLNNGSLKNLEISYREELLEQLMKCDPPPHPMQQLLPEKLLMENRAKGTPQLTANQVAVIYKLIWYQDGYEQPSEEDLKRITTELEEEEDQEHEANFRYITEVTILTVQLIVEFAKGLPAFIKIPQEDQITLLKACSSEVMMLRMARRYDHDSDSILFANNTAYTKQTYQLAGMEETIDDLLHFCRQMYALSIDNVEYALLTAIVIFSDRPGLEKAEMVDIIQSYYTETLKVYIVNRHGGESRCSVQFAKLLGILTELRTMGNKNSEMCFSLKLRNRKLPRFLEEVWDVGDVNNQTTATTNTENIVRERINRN
T2 sequence (O45117 whole entry): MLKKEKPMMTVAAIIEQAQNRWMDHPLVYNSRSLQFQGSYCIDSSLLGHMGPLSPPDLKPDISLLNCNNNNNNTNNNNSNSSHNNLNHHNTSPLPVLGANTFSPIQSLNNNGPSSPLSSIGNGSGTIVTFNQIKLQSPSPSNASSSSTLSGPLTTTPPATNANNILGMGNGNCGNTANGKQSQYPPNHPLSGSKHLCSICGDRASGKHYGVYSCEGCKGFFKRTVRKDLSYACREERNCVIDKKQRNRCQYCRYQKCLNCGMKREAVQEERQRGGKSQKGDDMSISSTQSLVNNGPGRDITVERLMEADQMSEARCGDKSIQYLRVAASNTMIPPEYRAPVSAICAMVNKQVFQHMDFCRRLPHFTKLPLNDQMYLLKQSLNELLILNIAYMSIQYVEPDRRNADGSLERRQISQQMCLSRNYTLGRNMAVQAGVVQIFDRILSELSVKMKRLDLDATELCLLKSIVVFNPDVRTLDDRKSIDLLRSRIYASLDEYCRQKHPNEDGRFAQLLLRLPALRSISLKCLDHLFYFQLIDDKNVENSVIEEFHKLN
The assay is described as follows: Binding affinity to Chironomus tentans EcR.

Assay [3] addresses T3, Ecdysone receptor (Choristoneura fumiferana, UniProt O76202+O77240).
T3 sequence (O77240 whole entry): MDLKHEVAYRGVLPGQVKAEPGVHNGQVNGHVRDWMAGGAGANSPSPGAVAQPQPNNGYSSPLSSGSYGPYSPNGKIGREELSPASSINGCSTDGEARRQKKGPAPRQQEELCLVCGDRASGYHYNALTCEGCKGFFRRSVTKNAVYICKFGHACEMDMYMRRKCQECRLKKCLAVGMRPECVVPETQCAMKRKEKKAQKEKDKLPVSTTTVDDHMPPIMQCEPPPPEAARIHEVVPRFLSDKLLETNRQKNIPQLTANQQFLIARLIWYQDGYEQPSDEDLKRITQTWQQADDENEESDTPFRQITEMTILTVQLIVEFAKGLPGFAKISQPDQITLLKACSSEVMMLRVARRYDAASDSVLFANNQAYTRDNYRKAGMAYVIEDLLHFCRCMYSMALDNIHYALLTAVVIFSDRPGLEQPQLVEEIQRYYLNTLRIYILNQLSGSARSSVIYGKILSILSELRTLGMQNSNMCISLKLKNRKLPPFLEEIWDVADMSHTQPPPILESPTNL
T3 sequence (O76202 whole entry): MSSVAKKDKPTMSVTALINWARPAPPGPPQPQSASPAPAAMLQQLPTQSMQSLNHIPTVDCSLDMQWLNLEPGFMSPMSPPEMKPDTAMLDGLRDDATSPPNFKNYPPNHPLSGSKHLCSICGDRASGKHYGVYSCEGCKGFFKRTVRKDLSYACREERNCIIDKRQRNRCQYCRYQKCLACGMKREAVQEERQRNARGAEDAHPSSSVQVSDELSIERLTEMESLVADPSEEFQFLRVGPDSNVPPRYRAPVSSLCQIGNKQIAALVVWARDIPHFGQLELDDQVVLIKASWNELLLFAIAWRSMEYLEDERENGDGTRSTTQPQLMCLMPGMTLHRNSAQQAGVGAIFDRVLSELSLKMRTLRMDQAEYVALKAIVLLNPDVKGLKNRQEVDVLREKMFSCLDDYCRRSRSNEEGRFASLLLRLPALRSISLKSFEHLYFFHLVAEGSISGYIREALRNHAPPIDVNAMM
The assay is described as follows: Binding affinity to Choristoneura fumiferana EcR.

Take `CC(C)(O)CC[C@@H](O)[C@](C)(O)[C@H]1CC[C@@]2(O)C3=CC(=O)[C@@H]4C[C@@H](O)[C@@H](O)C[C@]4(C)[C@H]3CC[C@]12C` [20-HYDROXYECDYSONE]: the IC50 on Ecdysone receptor [1] is 166 nM. In other words, the sub-micromolar range.
For the molecule `CCc1ccc(C(=O)NN(C(=O)c2cc(C)cc(C)c2)C(C)(C)C)cc1` [TEBUFENOZIDE], the Ki on Ecdysone receptor [2] was 10 nM; at Ecdysone receptor [3], 0.501 nM.
